The values below come from patent publication US7115612B2, “Arylsulfonamides as antiviral agents” (Bayer Aktiengesellschaft, priority 2001, dated 2006).

Each structure is given as a SMILES string.

The term EC50 denotes the concentration that produces a half-maximal response. What is called CC50 is the concentration giving 50% cytotoxicity. In general, melting point refers to the temperature of the solid-liquid transition.

One data set deals with HCMV. Nature of the data set: Anti-HCMV cytopathogenicity test. The settings on record: for EC50: Human betaherpesvirus 5, 144 h, inhibition of CPE by 50% in HCMV-infected HELF cells, M.O.I. 0.001–0.002, 6 days; for SI HCMV: selectivity index = CC50 (HELF)/EC50 (HCMV). The class given is cell-based, human cytomegalovirus. How it is done:
(§1) Anti-HCMV (Anti-Human Cytomegalovirus) and anti-MCMV (Anti-Murine Cytomegalovirus) cytopathogenicity tests: The test compounds were employed as 50 millimolar (mM) solutions in dimethyl sulphoxide (DMSO). Ganciclovir, foscarnet and cidofovir served as reference compounds. Following the addition of in each case 2 μl of the 50, 5, 0.5 and 0.05 mM DMSO stock solutions to in each case 98μ of cell culture medium in row […], in duplicate determinations, 1:2 dilutions with in each case 50 μl of medium were prepared up to row 11 of the 96-well plate. The wells in rows 1 and 12 each contained 50 μl of medium. 150 μl of a suspension of 1×10^4 cells (human lung fibroblasts [HELF]) (row 1=cell control) or, in rows 2-12, a mixture of HCMV-infected and non-infected HELF cells (M.O.I.=0.001-0.002), i.e. 1-2 infected cells per 1000 non-infected cells, were then pipetted into each of the wells. Row 12 (without substance) served as virus control. The final test concentrations were 250-0.0005 μM. The plates were incubated at 37° C./5% CO2 for 6 days, i.e. until all cells in the virus controls had been infected (100% cytopathogenic effect [CPE]). The wells were then fixed and stained by adding a mixture of Formalin and Giemsa Stain (30 minutes), washed with doubly distilled water and dried in a drying cabinet at 50° C. The plates were then evaluated visually using an overhead microscope (plaque multiplier from Technomara). From the test plates, the following data were determined: EC50 (HCMV)=substance concentration in μM which inhibits the CPE (cytopathic effect) by 50% compared to the untreated virus control; SI (selectivity index)=CC50 (HELF)/EC50 (HCMV).

Data set [1] relates to human lung fibroblasts [HELF]. Nature of the data set: Cytotoxicity on HELF cells in the anti-HCMV cytopathogenicity test. Format: cell-based. The settings on record: 6 days incubation, visual evaluation. The procedure:
as §1, with “The” for “Anti-HCMV (Anti-Human Cytomegalovirus) and anti-MCMV (Anti-Murine Cytomegalovirus) cytopathogenicity tests: The”, “CC50 (HELF)=substance” for “EC50 (HCMV)=substance”, “at which,” for “which inhibits the CPE (cytopathic effect) by 50%”, “cell control, no visible cytostatic effects on the cells were noticeable;” for “virus control; SI (selectivity index)=CC50 (HELF)/EC50 (HCMV).”

The subject of another data set is MCMV. Nature of the data set: Anti-MCMV cytopathogenicity test. The class given is cell-based, murine cytomegalovirus. The settings on record: for EC50: Murid betaherpesvirus 1, 120 h, MCMV-infected 3T3 mouse cells, M.O.I. 0.05–0.1, 5 days; for SI MCMV: selectivity index, 3T3 CC50 / MCMV EC50. The procedure: Anti-HCMV (Anti-Human Cytomegalovirus) and anti-MCMV (Anti-Murine Cytomegalovirus) cytopathogenicity tests:
(§2) The test compounds were employed as 50 millimolar (mM) solutions in dimethyl sulphoxide (DMSO). Ganciclovir, foscarnet and cidofovir served as reference compounds. Following the addition of in each case 2 μl of the 50, 5, 0.5 and 0.05 mM DMSO stock solutions to in each case 98μ of cell culture medium in row 2 A-H, in duplicate determinations, 1:2 dilutions with in each case 50 μl of medium were prepared up to row 11 of the 96-well plate. The wells in rows 1 and 12 each contained 50 μl of medium. 150 μl of a suspension of 1×10^4 cells (human lung fibroblasts [HELF]) (row 1=cell control) or, in rows 2–12, a mixture of HCMV-infected and non-infected HELF cells (M.O.I.=0.001–0.002), i.e. 1–2 infected cells per 1000 non-infected cells, were then pipetted into each of the wells. Row 12 (without substance) served as virus control. The final test concentrations were 250–0.0005 μM. The plates were incubated at 37° C./5% CO2 for 6 days, i.e. until all cells in the virus controls had been infected (100% cytopathogenic effect [CPE]). The wells were then fixed and stained by adding a mixture of Formalin and Giemsa Stain (30 minutes), washed with doubly distilled water and dried in a drying cabinet at 50° C. The plates were then evaluated visually using an overhead microscope (plaque multiplier from Technomara).
(§3) Compared to the process described above for HCMV, the anti-MCMV test was carried out with the following changes: a cell-free virus suspension was mixed with a concentrated cell suspension (3T3 mouse cells) and incubated for 15 minutes for adsorption of the viruses, and the suspension was then diluted with medium to 1.3×10^5 cells/ml with a final multiplicity of infection (M.O.I.) of from 0.05–0.1, and in each case 150 μl were dispensed into the wells. The incubation time was 5 days.
(Cytopathic effects are the visible damage that an infection or toxin causes in cultured cells.)

Another data set relates to 3T3 mouse cells. Nature of the data set: Cytotoxicity on 3T3 cells in the anti-MCMV cytopathogenicity test. The class given is cell-based. The note with it: 5 days incubation. How it is done:
as §2
(§4) CC50 (HELF)=substance concentration in μM at which, compared to the untreated cell control, no visible cytostatic effects on the cells were noticeable;
as §3

Data set [2] in a line: Cytotoxicity on HELF cells in the anti-HCMV cytopathogenicity test. The class given is cell-based. The note with it: human lung fibroblasts (HELF cells), 6 days incubation, visual evaluation. How it is done: as §1, with “The” for “Anti-HCMV (Anti-Human Cytomegalovirus) and anti-MCMV (Anti-Murine Cytomegalovirus) cytopathogenicity tests: The”, “CC50 (HELF)=substance” for “EC50 (HCMV)=substance”, “at which,” for “which inhibits the CPE (cytopathic effect) by 50%”, “cell control, no visible cytostatic effects on the cells were noticeable;” for “virus control; SI (selectivity index)=CC50 (HELF)/EC50 (HCMV).”

Data set [3] in a line: Cytotoxicity on 3T3 cells in the anti-MCMV cytopathogenicity test. The class given is cell-based. The settings on record: mouse, 3T3 mouse cells, 5 days incubation. How it is done:
as §2, §4, §3

For the compound `Cc1cc(-c2nc(-c3ccc(S(=O)(=O)Nc4cccc(NC(=O)C5(C)CC5)c4)cc3)no2)n[nH]1` [Example 9, 1-Methyl-N-{3-[({4-[5-(5-methyl-1H-pyrazol-3-yl)-1,2,4-oxadiazol-3-yl]phenyl}-sulphonyl)amino]phenyl}cyclopropanecarboxamide], in the data set with HCMV, the midpoint of the response, the EC50, lay at 18 nM and the “SI HCMV” value was found to be 2167. Also, it took 39 µM to reach half-maximal cytotoxicity in data set [1] (CC50). In the data set on MCMV, the response was half-maximal at 68 nM (EC50) and the “SI MCMV” value was determined as 59. The compound further returned a half-maximal cytotoxic concentration (CC50) in the data set with 3T3 mouse cells of 4 µM.

As to `CC(C)(CF)C(=O)Nc1cccc(NS(=O)(=O)c2ccc(-c3noc(-c4ccccn4)n3)cc2)c1` [Example 1, 3-Fluoro-2,2-dimethyl-N-{3-[({4-[5-(2-pyridinyl)-1,2,4-oxadiazol-3-yl]phenyl}-sulphonyl)amino]phenyl}propanamide], the melting point was 178.9 °C. Further, in the data set on HCMV, a half-maximal response (EC50) required 55 nM and the “SI HCMV” value was determined as 2000. In addition, the midpoint of cytotoxicity in data set [2], the CC50 at 6 days, lay at 110 µM. In the data set on MCMV, the concentration giving a half-maximal response (EC50) was 19 nM and the “SI MCMV” value came out at 1737. In data set [3], this compound showed a cytotoxic concentration (CC50) at 5 days of 33 µM.
